Results: article PMC9837764 (Nature Communications, 2023)
Where “and” joins values, the source holds several entries; their conditions need not be identical. Equal entries are not always repeated. Where two headings read alike, the source gives them in different places.

How the values were obtained:
[1] = tested on: Salmonella typhimurium TA 102; assay: Ames test, strain TA 102; details: Positive Control 5 µg/plate
[2] = molecular target: SARS-CoV-2 RNA polymerase, nsp12, 7, and 8 (Severe acute respiratory syndrome coronavirus 2, UniProt P0DTD1); assay: SARS-CoV-2 RNA polymerase inhibition assay (pyrophosphate luminescence); assay type: biochemical
[3] = tested on: SARS-CoV-2; assay: Combination of RdRp inhibitors with SARS-CoV-2 nsp14 inhibitors in infected Calu-3 cells, synergy; assay type: cell-based; set-up: EC99 mean: unit not given here; details: for EC50: Severe acute respiratory syndrome coronavirus 2, Calu-3, read-out: EC50 mean; for EC90: Severe acute respiratory syndrome coronavirus 2, Calu-3, read-out: EC90 mean; for EC99 mean: Calu-3 cells, alone or with nsp14 inhibitor at the concentration of the label, unit not given
[4] = tested on: SARS-CoV-2; assay: Cell-associated virus RNA in SARS-CoV-2-infected human primary monocytes; assay type: cell-based
Protocol: (§1) Human primary monocytes were obtained after 3 h of plastic adherence of peripheral blood mononuclear cells (PBMCs). The use of primary human cell was approved by Institutional Review Board from the Oswaldo Cruz Foundation under protocol 49971421.8.0000.5248 with signed informed consent in accordance with the Hemotherapy Service of Hospital Clementino Fraga from the Federal University of Rio de Janeiro. All volunteers were de-identified. PBMCs were isolated from healthy donors by density gradient centrifugation (Ficoll-Paque, GE Healthcare). PBMCs (2.0 × 10^6 cells) were plated onto 48-well plates (NalgeNunc) in RPMI-1640 without serum for 2–4 h. Nonadherent cells were removed, and the remaining monocytes were maintained in DMEM with 5% human serum (HS; Millipore) and penicillin/streptomycin. The purity of human monocytes was above 95%, as determined by flow cytometric analysis (FACScan; Becton Dickinson) using anti-CD3 (BD Biosciences, cat # 555342, 1:40), anti-CD16 (Southern Biotech, cat # 561313, 1:20) and APC mouse IgG2a isotype (BD Biosciences, cat # 550882, 1/40) and PE mouse IgG1 isotype (BD Biosciences, 555749, 1/20).
Total viral RNA from a culture supernatant and/or monolayers was extracted using QIAamp Viral RNA (Qiagen®) according to the manufacturer’s instructions. Quantitative RT‒PCR was performed using GoTaq® Probe qPCR and RT-qPCR Systems (Promega) in a StepOne™ Real-Time PCR System (Thermo Fisher Scientific) ABI PRISM 7500 Sequence Detection System (Applied Biosystems). Amplifications were carried out in 25 µL reaction mixtures containing 2× reaction mix buffer, […] of each primer, 10 µM of probe, and 5 µL of RNA template. Primers, probes, and cycling conditions recommended by the Centers for Disease Control and Prevention (CDC) protocol were used to detect SARS-CoV-2[52]. The standard curve method was employed for virus quantification. For reference to the cell amounts used, the housekeeping gene RNAse P (F-5′-[…] -3′, R-5′[…] -3′, P-5′-FAM-[…] -BHQ-1-3′) was amplified. The Ct values for this target were compared to those obtained for different cell amounts, 10^7 to 10^2, for calibration.

[5] = tested on: TNF-α; assay: TNF-α in supernatant of SARS-CoV-2-infected human primary monocytes; assay type: cell-based
Protocol: as §1

[6] = tested on: IL-6; assay: IL-6 in supernatant of SARS-CoV-2-infected human primary monocytes; assay type: cell-based
Protocol: as §1

[7] = tested on: SARS-CoV-2; assay: Genomic and subgenomic viral RNA in infected Calu-3 cells (RT-PCR); assay type: cell-based
[8] = tested on: SARS-CoV-2; assay: Yield-reduction assay, SARS-CoV-2 in Calu-3 cells (titers as PFU/mL in Vero cells)
[9] = infected monocytes, drugs at 10 µM, 24 h, listed as RDV
[10] = Calu-3, 10 µM, 48 h, listed as RDV
[11] = infected Calu-3, compound alone at 10 uM

Nc1ccc2cc3ccccc3cc2c1 [2-AA, 2-aminoanthracene, reference compound]
Mutagenicity TA 102 +S9 [1]: +

O=P(O)(O)OP(=O)(O)OP(=O)(O)OC[C@H]1O[C@@H](n2cnc3c(NCc4ccco4)ncnc32)[C@H](O)[C@@H]1O [801-TP, Kinetin ribose 5’-triphosphate]
IC50 [2]: 100 ± 3 nM
IC50 fold higher than that of GS-443902 [2]: 3 fold
SARS-CoV-2 RNA polymerase inhibition (Fig2A source data, replicates) ([2]; Drug Concentration 0.001): 4 and 6 and 8
SARS-CoV-2 RNA polymerase inhibition (Fig2A source data, replicates) ([2]; Drug Concentration 0.01): 4 and 5 (2×)
SARS-CoV-2 RNA polymerase inhibition (Fig2A source data, replicates) ([2]; Drug Concentration 0.1): 53 and 50 and 55
SARS-CoV-2 RNA polymerase inhibition (Fig2A source data, replicates) ([2]; Drug Concentration 1): 60 and 47 and 52
SARS-CoV-2 RNA polymerase inhibition (Fig2A source data, replicates) ([2]; Drug Concentration 10): 70 and 75 and 51

COC(=O)N[C@H](C(=O)N1CCC[C@H]1c1nc(-c2ccc(-c3ccc(-c4c[nH]c([C@@H]5CCCN5C(=O)[C@@H](NC(=O)OC)C(C)C)n4)cc3)cc2)c[nH]1)C(C)C [Daclatasvir, daclatasvir]
EC50 [3]: 700 nM
EC90 [3]: 3800 nM

NC(=O)c1nc(F)c[nH]c1=O [Favipiravir, favipiravir]
EC50 [3]: 7800 nM

N#C[C@@]1(c2ccc3c(N)ncnn23)O[C@H](COP(=O)(O)OP(=O)(O)OP(=O)(O)O)[C@@H](O)[C@H]1O [GS-443902]
SARS-CoV-2 RNA polymerase inhibition (Fig2A source data, replicates) ([2]; Drug Concentration 0.001): 3 (2×) and 5
SARS-CoV-2 RNA polymerase inhibition (Fig2A source data, replicates) ([2]; Drug Concentration 0.01): 6 and 40 and 5
SARS-CoV-2 RNA polymerase inhibition (Fig2A source data, replicates) ([2]; Drug Concentration 0.1): 65 and 63 and 80
SARS-CoV-2 RNA polymerase inhibition (Fig2A source data, replicates) ([2]; Drug Concentration 1): 90 (2×) and 53
SARS-CoV-2 RNA polymerase inhibition (Fig2A source data, replicates) ([2]; Drug Concentration 10): 99 and 90 and 75

CC(C)OC(=O)[C@H](C)NP(=O)(OC[C@H]1O[C@@H](n2cnc3c(NCc4ccco4)ncnc32)[C@H](O)[C@@H]1O)Oc1ccccc1 (stereo partly drawn) [MB-711, Phenyl (Isopropoxy-L-alaninyl) Kinetin Riboside Phosphoramidate]
Cell-associated virus RNA levels in SARS-CoV-2-infected monocytes [4]: reduced cell-associated virus RNA levels in a concentration-dependent manner
Cell-associated virus RNA loads, inhibition (Fig1C source data, per donor) [4]: 2 (2×) and 0 and 32 and 30 and 35 and 40 and 45 and 50
TNF-α levels in the culture supernatant (Fig1D source data, per donor) [5]: 1.6 and 1.8 and 0.638 and 2.6 and 5.0 and 4.1
IL-6 levels in the culture supernatant (Fig1E source data, per donor) [6]: 2.2 and 1.8 and 0.121 and 4.3 and 3.4 and 5.0 and 1.5 and 2.9
Genomic viral RNA (Fig2B source data, replicates) [7]: 0.3 and 0.45 and 0.2
Subgenomic viral RNA (Fig2B source data, replicates) [7]: 0.6 and 0.8 and 0.5
Virus productive titers (Fig3A source data, replicates) [3]: 46000 and 30000 and 28000
Virus productive titers (Fig3B source data, replicates) [3]: 46000 and 30000 and 45000
Inhibition of SARS-CoV-2 infectious titers (Fig1A source data, replicates) [8]: 20 and 7 and 28 and 24 and 64 and 23 and 25 and 50 and 33 and 60 and 57 and 42 and 79 (2×) and 81
Inhibition of SARS-CoV-2 infectious titers (Fig1B source data, replicates) [8]: 16 (2×) and 20 and 43 and 73 and 50 and 55 and 71 and 77 (2×) and 80 and 75 and 99 and 97 and 95

c1coc(CNc2ncnc3c2ncn3C2CCCCO2)c1 (stereo not shown) [MB-906, 6-furfurylamino-9-(tetrahydropyran-2-yl)−9H-purine]
Antiviral activity, SARS-CoV-2 replication ([8]; huh-7 and calu-3 cells (Supplementary Fig. 2)): impaired

COC(=O)N[C@H](C(=O)N1CCC[C@H]1C(=O)Nc1ccc([C@@H]2CC[C@@H](c3ccc(NC(=O)[C@@H]4CCCN4C(=O)[C@@H](NC(=O)OC)C(C)C)cc3)N2c2ccc(C(C)(C)C)cc2)cc1)C(C)C [Ombitasvir, ombitasvir]
EC99 mean [3]: 18
EC50 [3]: 400 nM
EC90 [3]: 3300 nM

COC(=O)N[C@H](C(=O)N1CCC[C@H]1c1nc2cc([C@H]3CC[C@H](c4cc5nc([C@@H]6CCCN6C(=O)[C@@H](NC(=O)OC)[C@@H](C)OC)[nH]c5cc4F)N3c3cc(F)c(N4CCC(c5ccc(F)cc5)CC4)c(F)c3)c(F)cc2[nH]1)[C@@H](C)OC [Pibrentasvir, pibrentasvir]
EC99 mean [3]: 19
EC50 [3]: 700 nM
EC90 [3]: 4200 nM

Cc1nnc(C(=O)NC(C)(C)c2nc(C(=O)NCc3ccc(F)cc3)c(O)c(=O)n2C)o1 [RTG, raltegravir]
EC50 [3]: 4800 nM
Effects on SARS-CoV-2 replication ([3]; alone at 5 µM, Calu-3): marginal effects
Virus productive titers (Fig3A source data, replicates) ([3]; infected Calu-3, RTG alone at 5uM): 224000 and 448000

CCC(CC)COC(=O)[C@H](C)N[P@](=O)(OC[C@H]1O[C@@](C#N)(c2ccc3c(N)ncnn23)[C@H](O)[C@@H]1O)Oc1ccccc1 [Remdesivir, remdesivir, reference compound]
Cell-associated virus RNA levels in SARS-CoV-2-infected monocytes ([4]; Fig. 1c): reduced cell-associated virus RNA levels in a concentration-dependent manner
TNF-α levels in the culture supernatant (Fig1D source data, per donor) [5, 9]: 1.6 and 1.4 and 0.437 and 0.351 and 5.3 and 4.9 and 4.3 and 6.2
IL-6 levels in the culture supernatant (Fig1E source data, per donor) [6, 9]: 2.2 and 1.5 and 3.0 and 4.2 and 2.9 and 1.1
Genomic viral RNA (Fig2B source data, replicates) [7, 10]: 0.221 and 0.22 and 0.2
Subgenomic viral RNA (Fig2B source data, replicates) [7, 10]: 0.07 and 0.05 and 0.09
EC99 mean [3]: 1.1
EC50 [3]: 90 nM
EC90 [3]: 400 nM
EC50 ([8]; Severe acute respiratory syndrome coronavirus 2, Calu-3): 150 ± 30 nM
EC50 ([8]; Severe acute respiratory syndrome coronavirus 2, Calu-3, 24 h): 10 ± 3 nM
Inhibition of SARS-CoV-2 infectious titers (Fig1B source data, replicates) ([8]; additional treatment at 24 h, Drug 0.001, Calu-3, 48 h, listed as RDV): 28 and 35 and 32
Inhibition of SARS-CoV-2 infectious titers (Fig1B source data, replicates) ([8]; additional treatment at 24 h, Drug 0.01, listed as RDV): 40 and 60 and 50
Inhibition of SARS-CoV-2 infectious titers (Fig1B source data, replicates) ([8]; additional treatment at 24 h, Drug 0.1, listed as RDV): 80 and 70 and 60
Inhibition of SARS-CoV-2 infectious titers (Fig1B source data, replicates) ([8]; additional treatment at 24 h, Drug 1): 100
Inhibition of SARS-CoV-2 infectious titers (Fig1B source data, replicates) ([8]; additional treatment at 24 h, Drug 10): 100
Inhibition of SARS-CoV-2 infectious titers (Fig1A source data, replicates) ([8]; one treatment, Drug 0.001, Calu-3, MOI 0.1, 48 h, listed as RDV): 12 and 16 and 10
Inhibition of SARS-CoV-2 infectious titers (Fig1A source data, replicates) ([8]; one treatment, Drug 0.01, listed as RDV): 30 and 50 and 55
Inhibition of SARS-CoV-2 infectious titers (Fig1A source data, replicates) ([8]; one treatment, Drug 0.1, listed as RDV): 45 and 50 and 72
Inhibition of SARS-CoV-2 infectious titers (Fig1A source data, replicates) ([8]; one treatment, Drug 1): 100
Inhibition of SARS-CoV-2 infectious titers (Fig1A source data, replicates) ([8]; one treatment, Drug 10): 100

CC(C)OC(=O)[C@H](C)N[P@](=O)(OC[C@H]1O[C@@H](n2ccc(=O)[nH]c2=O)[C@](C)(F)[C@@H]1O)Oc1ccccc1 [Sofosbuvir, sofosbuvir]
Virus productive titers (Fig3A source data, replicates) [3, 11]: 64000 and 24000 and 240000
Virus productive titers (Fig3B source data, replicates) [3, 11]: 64000 and 24000 and 240000

C[C@H](Cn1cnc2c(N)ncnc21)OCP(=O)(O)O [Tenofovir, tenofovir]
EC50 [3]: 4300 nM
Virus productive titers (Fig3A source data, replicates) [3, 11]: 80000 and 88000 and 5000
Virus productive titers (Fig3B source data, replicates) [3, 11]: 80000 and 88000 and 5000
